By Ki is commonly meant a measure of affinity in units of concentration, obtained from inhibition or displacement. Read a high Ki as a looser hold on the target. What is called pKi is the Ki on a negative log10 scale, so that one unit is a factor of ten. Lower therefore signals a large Ki. The term Kb denotes the affinity of an antagonist, worked out from how it opposes an agonist.

The target in assay [1] is T1, Glutamate receptor 2 (Rattus norvegicus, UniProt P19491). Put plainly: Displacement of [3H]AMPA from rat GluA2(R) receptor flip isoform expressed in sf9 insect cell membranes by TopCount method. A general note: Loss of bound radioactivity is the signal in a displacement assay; it reports binding, not function.
A further assay has as its target Glutamate receptor 3 (Rattus norvegicus, UniProt P19492). Put plainly: Displacement of [3H]AMPA from rat GluA3 receptor flip isoform expressed in sf9 insect cell membranes by TopCount method.
The nature of assay [2]: Displacement of [3H]AMPA from AMPA receptor in rat brain membranes by scintillation counting method. Format: cell membranes, Membrane.
Assay [3] can be described thus: Displacement of [3H]KA from KA receptor in rat brain membranes by scintillation counting method. The format is cell membranes, Membrane.
The target of the next assay is Glutamate NMDA receptor. Kind of assay: Displacement of [3H]CGP39653 from NMDA receptor in rat brain membranes by scintillation counting method. The format is cell membranes, Membrane.
Assay [4] in a line: Displacement of [3H]AMPA from AMPA receptor in rat brain membranes. The format is cell membranes, Membrane.
Assay [5] deals with T1, Glutamate receptor 2. Kind of assay: Displacement of [3H]AMPA from rat GluA2(Q) receptor flop isoform by TopCount method.
Assay [6] concerns the target Glutamate receptor 2 (Rattus norvegicus) (UniProt P19491). Kind of assay: Agonist activity at rat GluA2(Q) receptor flop isoform expressed in Xenopus laevis oocytes at 300 uM by two electrode voltage clamp method. The format is cell-based. On the technique in general: In two-electrode clamp one electrode senses voltage and the other passes current.
Assay [7] has the same target. Put plainly: Antagonist activity at rat GluA2(Q) receptor flop isoform expressed in Xenopus laevis oocytes assessed as inhibition of (S)-glutamate-induced channel activation by two electrode voltage clamp method. Format: cell-based.
The species entered for another assay is Rattus norvegicus. Kind of assay: Selectivity ratio of Ki for rat GluA3 receptor flip isoform expressed in sf9 insect cell membranes to Ki for rat GluA2(R) receptor flip isoform expressed in sf9 insect cell membranes.

The source made the active and inactive calls. The calls are words filed in the database; no cut-off is given here. Some results are limits rather than exact numbers.

Sequence of Glutamate receptor 3 (P19492 whole entry, canonical isoform): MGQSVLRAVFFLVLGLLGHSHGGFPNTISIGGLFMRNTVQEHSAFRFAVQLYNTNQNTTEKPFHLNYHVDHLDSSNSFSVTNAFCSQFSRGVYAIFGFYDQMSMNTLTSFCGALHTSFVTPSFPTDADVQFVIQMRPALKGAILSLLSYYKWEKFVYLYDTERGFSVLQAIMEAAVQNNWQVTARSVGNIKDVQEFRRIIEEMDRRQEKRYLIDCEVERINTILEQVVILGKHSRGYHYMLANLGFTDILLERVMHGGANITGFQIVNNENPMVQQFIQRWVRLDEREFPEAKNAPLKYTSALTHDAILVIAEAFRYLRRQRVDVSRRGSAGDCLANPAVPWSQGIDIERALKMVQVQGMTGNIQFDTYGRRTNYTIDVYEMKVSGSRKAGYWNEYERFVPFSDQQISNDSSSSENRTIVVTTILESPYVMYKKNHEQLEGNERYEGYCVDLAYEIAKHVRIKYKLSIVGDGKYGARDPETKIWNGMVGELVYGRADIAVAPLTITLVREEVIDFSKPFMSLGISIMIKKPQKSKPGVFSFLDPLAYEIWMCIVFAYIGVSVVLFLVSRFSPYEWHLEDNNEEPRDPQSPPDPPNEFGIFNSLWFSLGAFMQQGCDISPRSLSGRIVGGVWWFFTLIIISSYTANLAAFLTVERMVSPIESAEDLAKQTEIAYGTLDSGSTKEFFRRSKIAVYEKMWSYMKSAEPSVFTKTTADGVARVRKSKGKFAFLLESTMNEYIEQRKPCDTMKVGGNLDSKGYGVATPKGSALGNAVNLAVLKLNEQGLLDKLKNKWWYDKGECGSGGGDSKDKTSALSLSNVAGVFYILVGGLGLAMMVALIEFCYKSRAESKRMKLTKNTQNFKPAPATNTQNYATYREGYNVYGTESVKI
T1 sequence (P19491 whole entry, canonical isoform): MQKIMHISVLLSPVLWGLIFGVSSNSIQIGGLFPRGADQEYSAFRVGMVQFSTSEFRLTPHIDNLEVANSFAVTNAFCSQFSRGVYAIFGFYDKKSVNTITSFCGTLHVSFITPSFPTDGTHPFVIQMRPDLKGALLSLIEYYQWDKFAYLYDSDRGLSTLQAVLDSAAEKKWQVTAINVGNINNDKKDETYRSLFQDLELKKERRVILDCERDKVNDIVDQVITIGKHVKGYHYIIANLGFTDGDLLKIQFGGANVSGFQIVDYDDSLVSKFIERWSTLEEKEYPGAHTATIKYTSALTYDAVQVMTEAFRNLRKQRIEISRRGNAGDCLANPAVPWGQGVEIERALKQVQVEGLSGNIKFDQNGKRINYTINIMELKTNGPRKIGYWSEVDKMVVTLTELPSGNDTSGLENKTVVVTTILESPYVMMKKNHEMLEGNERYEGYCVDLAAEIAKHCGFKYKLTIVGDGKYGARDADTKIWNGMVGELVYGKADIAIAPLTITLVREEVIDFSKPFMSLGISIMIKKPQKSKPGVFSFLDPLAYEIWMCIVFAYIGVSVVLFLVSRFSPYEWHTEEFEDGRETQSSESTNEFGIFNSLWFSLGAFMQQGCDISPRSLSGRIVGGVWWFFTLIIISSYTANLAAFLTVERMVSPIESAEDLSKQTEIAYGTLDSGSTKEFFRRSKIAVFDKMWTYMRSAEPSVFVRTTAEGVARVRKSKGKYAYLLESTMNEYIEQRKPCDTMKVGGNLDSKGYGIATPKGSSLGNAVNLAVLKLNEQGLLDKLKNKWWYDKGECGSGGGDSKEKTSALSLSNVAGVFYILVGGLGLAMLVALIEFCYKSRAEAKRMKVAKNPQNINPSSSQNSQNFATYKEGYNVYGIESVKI
Sequence of Glutamate receptor 2 (Rattus norvegicus) (P19491 whole entry, canonical isoform): as above

For `N[C@H](Cc1ccc(Cl)c(-c2cccc(O)c2)c1)C(=O)O`, the results for the Ki on Glutamate receptor 2 [1] and on Glutamate receptor 3 were 21.9 µM and more than 100 µM, respectively.
With `NC(Cc1ccc([N+](=O)[O-])c(-c2cccc(O)c2)c1)C(=O)O` (racemic), the Ki is 21 µM in assay [2], more than 100 µM in assay [3] and more than 100 µM on Glutamate NMDA receptor. This compound also registered a pKi in [2] of 4.67.
On to `NC(Cc1ccc(Cl)c(-c2cccc(O)c2)c1)C(=O)O` (racemic), for which the Ki in [2] was 9.2 µM; in assay [3], more than 100 µM; on Glutamate NMDA receptor, more than 100 µM. For the same compound, in [2], the pKi amounted to 5.04.
With `N[C@@H](Cc1cc(Cl)cc(-c2cccc(O)c2)c1)C(=O)O`, the figures for the Ki on Glutamate receptor 2 [1] and at Glutamate receptor 3 were 40.8 µM and more than 100 µM, respectively.
For `NC(Cc1cc(Cl)cc(-c2ccc(O)cc2)c1)C(=O)O` (racemic), the inhibitory constant (Ki) in [2] is 46 µM; in assay [3], more than 100 µM; on Glutamate NMDA receptor, more than 100 µM. Moreover, the pKi in assay [2] is 4.34.
Regarding `NC(Cc1cc(Cl)c(O)c(-c2cccc(O)c2)c1)C(=O)O` (racemic), the inhibition constant (Ki) in [2] was 7.9 µM; in assay [3] it was more than 100 µM; at Glutamate NMDA receptor, more than 100 µM. This compound showed a pKi in assay [2] of 5.1.
`N[C@@H](Cc1ccc(Cl)c(-c2cccc(O)c2)c1)C(=O)O`: the Ki at Glutamate receptor 2 [1] and on Glutamate receptor 3 was more than 100 µM throughout.
`NC(Cc1cc(-c2cccc(O)c2)cc([N+](=O)[O-])c1)C(=O)O` (racemic): the values for the Ki (in assay [2]; in [3]; on Glutamate NMDA receptor) were 8.2 µM, more than 100 µM and more than 100 µM, respectively. In addition, in assay [2], the pKi was determined as 5.09.
As for `CC(C)(C)c1onc(OCP(=O)(O)O)c1C[C@H](N)C(=O)O`, the Ki in [4] is 16 µM; in assay [3], more than 100 µM.
Regarding `COc1c(Cl)cc(CC(N)C(=O)O)cc1-c1cccc(O)c1` (racemic), the Ki (in assay [2]; in assay [3]; at Glutamate NMDA receptor) was more than 100 µM in each case.
The compound `NC(Cc1cccc(-c2cccc(O)c2)c1)C(=O)O` (racemic) gave a Ki in assay [3] of more than 100 µM.
Turning to `NC(Cc1cc(-c2ccc(O)cc2)c(Cl)c([N+](=O)[O-])c1)C(=O)O` (racemic), the inhibition constant (Ki) in [2] is 23 µM; in assay [3] it was more than 100 µM; on Glutamate NMDA receptor, more than 100 µM. The compound also showed a pKi in [2] of 4.66.
As for `NC(Cc1cc(-c2ccc(O)cc2)cc([N+](=O)[O-])c1)C(=O)O` (racemic), the inhibition constant (Ki) in assay [2] was 21 µM; in [3] it was more than 100 µM; on Glutamate NMDA receptor, more than 100 µM. For the same compound, in [2], the pKi is given as 4.68.
As to `N[C@H](Cc1cc(Cl)cc(-c2cccc(O)c2)c1)C(=O)O`, the figures for the inhibitory constant (Ki) on Glutamate receptor 2 [1] and at Glutamate receptor 3 were 20.7 µM and more than 100 µM, respectively.
Consider `Nc1c(Cl)cc(CC(N)C(=O)O)cc1-c1cccc(O)c1` (racemic), for which the Ki in assay [2] was 10 µM; in assay [3] it was more than 100 µM; on Glutamate NMDA receptor, more than 100 µM. In assay [2], this compound had a pKi of 4.99.
As for `NC(Cc1cc(-c2cc(O)ccc2O)c(Cl)c([N+](=O)[O-])c1)C(=O)O` (racemic), the inhibition constant Ki in [2] was 0.92 µM; in assay [3] it was 15 µM; on Glutamate NMDA receptor, more than 100 µM. The pKi worked out at 6.04 in assay [2] and 4.83 in assay [3].
Take `NC(Cc1cc(Cl)cc(-c2cccc(O)c2)c1)C(=O)O` (racemic): the results for the Ki (in assay [2]; in assay [3]; at Glutamate NMDA receptor) were 9.3 µM, more than 100 µM and more than 100 µM, respectively. In assay [2], this compound yielded a pKi of 5.06.
As for `Nc1ccc(CC(N)C(=O)O)cc1-c1cccc(O)c1` (racemic), the Ki in assay [2] was 9.1 µM; in assay [3], more than 100 µM; on Glutamate NMDA receptor, more than 100 µM. Moreover, the pKi in [2] was found to be 5.05.
The compound `NC(Cc1cc(Cl)c(Cl)c(-c2cncc(O)c2)c1)C(=O)O` (racemic) yielded a Ki in assay [3] of more than 100 µM.
In the case of `Nc1c(-c2cccc(O)c2)cc(CC(N)C(=O)O)cc1[N+](=O)[O-]` (racemic), the Ki is 14 µM in assay [2], more than 100 µM in assay [3] and more than 100 µM on Glutamate NMDA receptor. In addition, the pKi in assay [2] is reported as 4.84.
As to `NC(Cc1ccc([N+](=O)[O-])c(-c2ccc(O)cc2)c1)C(=O)O` (racemic), the Ki in [2] was 64 µM; in assay [3] it was more than 100 µM; on Glutamate NMDA receptor it was more than 100 µM. This compound gave a pKi in assay [2] of 4.2.
Take `N[C@@H](Cc1cc(-c2cc(O)ccc2O)c(Cl)c([N+](=O)[O-])c1)C(=O)O`: the inhibition constant (Ki) at Glutamate receptor 2 [1] is 18.4 µM; at Glutamate receptor 3, more than 100 µM.
Consider `NC(Cc1cc(Cl)c(Cl)c(-c2cccc(O)c2)c1)C(=O)O` (racemic), for which the Ki in assay [3] is more than 100 µM.
Regarding `NC(Cc1cc(-c2cc(O)cc(F)c2)c(Cl)c([N+](=O)[O-])c1)C(=O)O` (racemic), the Ki in [2] was 3.4 µM; in assay [3], 26 µM; on Glutamate NMDA receptor, more than 100 µM. Besides, the pKi in assay [2] came out at 5.47; in [3], 4.58.
For `NC(Cc1cc(-c2cncc(O)c2)c(Cl)c([N+](=O)[O-])c1)C(=O)O` (racemic), the figures for the Ki (in [2]; in assay [3]; at Glutamate NMDA receptor) were 2 µM, more than 100 µM and more than 100 µM, respectively. Besides, the pKi in assay [2] came out at 5.7.
As to `NC(Cc1cc(-c2cccc(O)c2)c(Cl)c([N+](=O)[O-])c1)C(=O)O` (racemic), the figures for the Ki (in [2]; in assay [3]; at Glutamate NMDA receptor) were 3.1 µM, more than 100 µM and more than 100 µM, respectively. The pKi in assay [2] worked out at 5.52.
With `N[C@H](Cc1cc(-c2cc(O)ccc2O)c(Cl)c([N+](=O)[O-])c1)C(=O)O`, the results for the Ki at Glutamate receptor 2 [5], on Glutamate receptor 2 [1] and at Glutamate receptor 3 were 1.74 µM, 1.71 µM and 7.01 µM, respectively. Moreover, the result in assay [6] was inactive. Also, the Kb in assay [7] is 2.13 µM. Also, the inhibition entry in [7] was “Dose-dependent effect”. Also, the Ratio Ki in the assay filed under Rattus norvegicus was determined as 4.
On to `NC(Cc1ccc(Cl)c(-c2ccc(O)cc2)c1)C(=O)O` (racemic), for which the Ki in assay [2] was 65 µM; in [3], more than 100 µM; on Glutamate NMDA receptor it was more than 100 µM. Also, the pKi in assay [2] is reported as 4.19.
